Assay results taken from PMC6544261, “A novel thermostable and halophilic thioredoxin reductase from the Red Sea Atlantis II hot brine pool” (PLoS ONE, 2019).

Target: T1, ATII-TrxR (Cupriavidus basilensis, UniProt A0A643FQQ5)
T1 construct: codon-optimised synthetic gene in pET-28a(+), His-tagged, E. coli BL21(DE3), HisTrap; dimer
T1 sequence (A0A643FQQ5 1-552): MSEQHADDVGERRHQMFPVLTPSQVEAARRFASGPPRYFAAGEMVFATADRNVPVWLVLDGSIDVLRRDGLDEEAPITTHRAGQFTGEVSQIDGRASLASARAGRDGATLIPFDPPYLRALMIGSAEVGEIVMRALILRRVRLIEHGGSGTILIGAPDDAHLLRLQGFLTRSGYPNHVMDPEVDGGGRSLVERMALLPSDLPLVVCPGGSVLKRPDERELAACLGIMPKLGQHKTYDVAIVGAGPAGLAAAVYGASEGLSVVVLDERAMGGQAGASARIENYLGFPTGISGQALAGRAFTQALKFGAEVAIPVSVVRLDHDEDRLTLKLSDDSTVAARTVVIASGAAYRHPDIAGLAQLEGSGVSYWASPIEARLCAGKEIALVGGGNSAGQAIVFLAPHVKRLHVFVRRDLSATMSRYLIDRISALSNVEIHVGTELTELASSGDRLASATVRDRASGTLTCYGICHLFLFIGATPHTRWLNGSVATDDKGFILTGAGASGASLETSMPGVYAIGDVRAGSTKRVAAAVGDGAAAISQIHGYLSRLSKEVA
Assay: flavin absorbance at […] nm, co-elution of […] and […] nm peaks
Type: binding
Details: cofactor bound to enzyme as purified

For `Cc1cc2nc3c(=O)[nH]c(=O)nc-3n(C[C@H](O)[C@H](O)[C@H](O)COP(=O)(O)OP(=O)(O)OC[C@H]3O[C@@H](n4cnc5c(N)ncnc54)[C@H](O)[C@@H]3O)c2cc1C` [FAD], which “mol FAD/mol native enzyme” value is on record?
Its value is “The binding of ATII-TrxR protein to the cofactor FAD was confirmed”.
